Results taken from patent US20070122810A1 (priority 2003, published 2007).
Like-named read-outs stand apart in the source and are kept apart here.

System: tumor cell suspension (glioma samples)
[1] = FIG. 5, example A, tumor located near normal brain tissue in phylogenetic tree, 8 hours incubation, about 1/10 of highest blood concentration
[2] = FIG. 5, example B, tumor located near normal brain tissue in phylogenetic tree, 8 hours incubation, about 1/10 of highest blood concentration

Protocol: These drugs were classified into five following categories by pharmacological mechanism. • Alkylating agents: • 4-hydroperoxy-cyclophosphamide (CPM)(1 μg/ml), 4-hydroperoxy-ifosfamide (IFOS) (I μg/ml), melphalan (MPL) (0.5 μg/ml), carboquone (CQ) (0.1 μg/ml), nimustine (ACNU) (2 μg/ml), ranimustine (MCNU) (2 μg/ml), cisplatinum (CDDP) (0.5 μg/ml) and carboplatin (JM-8) (4 μg/ml) • Antimetabolites: • Methotrexate (MTX) (3 μg/ml), 5-fluoro uracil (5-FU) (10 μg/ml), thioinosine (6-MRP) (3μg/ml) and cytosine arabinoside (CA) (4 μg/ml) • Antibiotics: • Mitomycin C (MMC) (0.2 μg/ml), bleomycin (BLM) (1 μg/ml), peplomycin (PEP) (0.5 μg/ml), chromomycin A3 (TM) (0.01 μg/ml) and neocarsinostatin (NCS) (0.15 μg/ml) • Topoisomerase inhibitors: • Actinomycin D (ACD) (0.01 μg/ml), aclarubicin (ACR) (0.6 μg/ml), adriamycin (ADM) (0.3 μg/ml), daunomycin (DM) (0.6 μg/ml), pirarubicin (THP) (0.3 μg/ml), epirubicin (4′-EPI) (0.4 μg/ml), mitoxantrone (MIT) (0.06 μg/ml), etoposide (VP-16) (3 μg/ml) and camptothecine (CPT-11) (3 μg/ml) • Microtubule Inhibitors: • Vincristine (VCR) (0.1 μg/ml), vinblastin (VLB) (0.1 μg/ml), vindesin (VDS) (0.1 μg/ml) and paclitaxel (TAX) (0.6 μg/ml)
The in vitro concentrations of these drugs were set to about 1/10 of the highest blood concentration when administered at a dose clinically recommended, and differences in the reaction by dose were evaluated for 10 selected drugs (CPM, ACNU, CDDP, PEP, ADM, VP-16, CA, TAX, VCR). The cultured samples of these were mixed in a phosphate buffered saline (pH 7.2)/0.1% Triton X-100/0.1 mg/ml RNase/0.01% sodium azide for 15 minutes and subsequently mixed with 50 g/ml of propidium iodide (Sigma,St.Louis, Mo.) for 5 minutes. The isolated nuclei were analyzed with flow cytometer (FACScan:Becton Dickinson, Mountain view, Calif.). The efficacy of a drug was judged by shifting the nucleus of apoptosis to a low diploid (sub-G1) region and comparing reverse decrease of the peak of the thus incorporated diploid with decrease of untreated control cells. […] Decomposition and condensation of chromatin were judged as a marker of apoptosis and quantitatively evaluated by Fisher's exact test.

Row | SMILES | efficacy of drug in drug sensitivity test [1] | efficacy of drug in drug sensitivity test [2] | efficacy of drug in drug sensitivity test (FIG. 5, example C, tumor located slightly away from normal brain tissue in phylogenetic tree) | drug sensitivity of tumors having sensitivity to ACNU (tumors having sensitivity to ACNU)
1 | O=P1(N(CCCl)CCCl)NC(OO)CCO1 (stereo not shown) [CPM] | effective | effective |  | 
2 | Cc1ncc(CNC(=O)N(CCCl)N=O)c(N)n1 [ACNU, nimustine] | effective | effective |  | 
3 | CC[C@]1(O)C[C@H]2CN(CCc3c([nH]c4ccccc34)[C@@](C(=O)OC)(c3cc4c(cc3OC)N(C=O)[C@H]3[C@@](O)(C(=O)OC)[C@H](OC(C)=O)[C@]5(CC)C=CCN6CC[C@]43[C@@H]65)C2)C1 [VCR, vincristine] |  |  | effective | generally resistant
4 | CC(=O)O[C@H]1C(=O)[C@@]2(C)[C@H]([C@H](OC(=O)c3ccccc3)[C@]3(O)C[C@H](OC(=O)[C@H](O)[C@@H](NC(=O)c4ccccc4)c4ccccc4)C(C)=C1C3(C)C)[C@]1(OC(C)=O)CO[C@@H]1C[C@@H]2O [TAX, paclitaxel] |  | effective |  | 
